# Like-named read-outs stand apart in the source and are kept apart here.
# What was measured:
# PANC-1 = experiment: Inhibition of cells growth by colorimetric (SRB) assay, PANC-1; conditions: for GI50 / CC50: Homo sapiens, PANC-1, 48 h; for GI50: read-out: PANC-1 GI50, SRB assay, 48 hours exposure; for CC50: read-out: PANC-1 LC50, SRB assay, 48 hours exposure; for PANC-1 TGI: SRB assay, 48 hours exposure
# In short: (§1)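 Human tumour cells seeded at 5×10^3/well in RPMI 1640 10% FBS, attached 18 h, then exposed 48 h to samples at 10 to 10^−8 μg/ml in DMSO/EtOH/PBS (0.5:0.5:99). Growth read by SRB staining after TCA fixation, OD 490 nm, triplicate wells; GI, TGI and LC derived.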
# SK-MEL-28 = experiment: Inhibition of cells growth by colorimetric (SRB) assay, SK-MEL-28; conditions: for GI50 / CC50: Homo sapiens, SK-MEL-28, 48 h; for GI50: read-out: MEL-28 GI50, SRB assay, 48 hours exposure; for CC50: read-out: MEL-28 LC50, SRB assay, 48 hours exposure; for MEL-28 TGI: SRB assay, 48 hours exposure
# In short: as §1
# HT-29 = experiment: Inhibition of cells growth by colorimetric (SRB) assay, HT-29; conditions: for GI50 / CC50: Homo sapiens, HT-29, 48 h
# In short: as §1
# K-562 = experiment: Inhibition of cells growth by colorimetric (SRB) assay, K-562; conditions: for GI50 / CC50: Homo sapiens, K562, 48 h; for GI50: read-out: K-562 GI50, SRB assay, 48 hours exposure; for CC50: read-out: K-562 LC50, SRB assay, 48 hours exposure; for K-562 TGI: SRB assay, 48 hours exposure
# In short: as §1
# DU-145 = experiment: Inhibition of cells growth by colorimetric (SRB) assay, DU-145; conditions: for GI50 / CC50: Homo sapiens, DU-145, 48 h; for GI50: read-out: DU-145 GI50, SRB assay, 48 hours exposure; for CC50: read-out: DU-145 LC50, SRB assay, 48 hours exposure; for DU-145 TGI: SRB assay, 48 hours exposure
# In short: as §1
# HeLa = experiment: Inhibition of cells growth by colorimetric (SRB) assay, HeLa; conditions: for GI50: Homo sapiens, HeLa, 48 h, read-out: HELA GI50, SRB assay, 48 hours exposure; for HELA TGI: SRB assay, 48 hours exposure
# Text: (§2) The finality of these assays is to interrupt the growth of a “in vitro” tumor cell culture by means a continued exhibition of the cells to the sample to be testing.
# (§3) This form of the assay employs 96 well cell culture microplates of 9 mm diameter (Faircloth, 1988; Mosmann, 1983). Most of the cell lines are obtained from American Type Culture Collection (ATCC) derived from different human cancer types.
# (§4) Cells are maintained in RPMI 1640 10% FBS, supplemented with 0.1 g/l penicillin and 0.1 g/l streptomycin sulphate and then incubated at 37° C., 5% CO2 and 98% humidity. For the experiments, cells were harvested from subconfluent cultures using trypsin and resuspended in fresh medium before plating.
# (§5) Cells are seeded in 96 well microtiter plates, at 5×10^3 cells per well in aliquots of 195 μl medium, and they are allowed to attach to the plate surface by growing in drug free medium for 18 hours. Afterward, samples are added in aliquots of 5 μl in a ranging from 10 to 10^−8 μg/ml, dissolved in DMSO/EtOH/PBS (0.5:0.5:99). After 48 hours exposure, the antitumor effect are measured by the SRB methodology: cells are fixed by adding 50 μl of cold 50% (wt/vol) trichloroacetic acid (TCA) and incubating for 60 minutes at 4° C. Plates are washed with deionized water and dried. One hundred μl of SRB solution (0.4% wt/vol in 1% acetic acid) is added to each microtiter well and incubated for 10 minutes at room temperature. Unbound SRB is removed by washing with 1% acetic acid. Plates are air dried and bound stain is solubilized with Tris buffer. Optical densities are read on a automated spectrophotometric plate reader at a single wavelength of 490 nm.
# (§6) The values for mean +/−SD of data from triplicate wells are calculated. Some parameters for cellular responses can be calculated: GI=growth inhibition, TGI=total growth inhibition (cytostatic effect) and LC=cell killing (cytotoxic effect).
# LNCaP = experiment: Inhibition of cells growth by colorimetric (SRB) assay, LNCaP; conditions: for GI50 / CC50: Homo sapiens, LNCaP, 48 h; for GI50: read-out: LN-caP GI50, SRB assay, 48 hours exposure; for CC50: read-out: LN-caP LC50, SRB assay, 48 hours exposure; for LN-caP TGI: SRB assay, 48 hours exposure
# In short: as §1
# LoVo-Dox = experiment: Inhibition of cells growth by colorimetric (SRB) assay, LoVo-Dox; conditions: for GI50 / CC50: Homo sapiens, 48 h; for GI50: read-out: LOVO-DOX GI50, SRB assay, 48 hours exposure; for CC50: read-out: LOVO-DOX LC50, SRB assay, 48 hours exposure; for LOVO-DOX TGI: SRB assay, 48 hours exposure
# In short: as §1
# HeLa-APL = experiment: Inhibition of cells growth by colorimetric (SRB) assay, HeLa-APL; conditions: for GI50 / CC50: Homo sapiens, 48 h; for GI50: read-out: HELA-APL GI50, SRB assay, 48 hours exposure; for CC50: read-out: HELA-APL LC50, SRB assay, 48 hours exposure; for HELA-APL TGI: SRB assay, 48 hours exposure
# Text: as §2, §3, §4, §5, §6
# IGROV-ET = experiment: Inhibition of cells growth by colorimetric (SRB) assay, IGROV-ET; conditions: for GI50 / CC50: Homo sapiens, 48 h; for GI50: read-out: IGROV-ET GI50, SRB assay, 48 hours exposure; for CC50: read-out: IGROV-ET LC50, SRB assay, 48 hours exposure; for IGROV-ET TGI: SRB assay, 48 hours exposure
# In short: as §1
# SK-BR-3 = experiment: Inhibition of cells growth by colorimetric (SRB) assay, SK-BR-3; conditions: for GI50 / CC50: Homo sapiens, SK-BR-3, 48 h; for GI50: read-out: SK-BR-3 GI50, SRB assay, 48 hours exposure; for CC50: read-out: SK-BR-3 LC50, SRB assay, 48 hours exposure; for SK-BR-3 TGI: SRB assay, 48 hours exposure
# In short: as §1
# IGROV-1 = experiment: Inhibition of cells growth by colorimetric (SRB) assay, IGROV-1; conditions: for GI50 / CC50: Homo sapiens, IGROV-1, 48 h; for GI50: read-out: IGROV GI50, SRB assay, 48 hours exposure; for CC50: read-out: IGROV LC50, SRB assay, 48 hours exposure; for IGROV TGI: SRB assay, 48 hours exposure
# In short: as §1
# A-549 = experiment: Inhibition of cells growth by colorimetric (SRB) assay, A-549; conditions: for GI50 / CC50: Homo sapiens, A549, 48 h
# In short: as §1
# LoVo = experiment: Inhibition of cells growth by colorimetric (SRB) assay, LoVo; conditions: for GI50 / CC50: Homo sapiens, LoVo, 48 h; for GI50: read-out: LOVO GI50, SRB assay, 48 hours exposure; for CC50: read-out: LOVO LC50, SRB assay, 48 hours exposure; for LOVO TGI: SRB assay, 48 hours exposure
# In short: as §1
# [1] = read-out: HT-29 GI50, SRB assay, 48 hours exposure
# [2] = read-out: HT-29 LC50, SRB assay, 48 hours exposure
# [3] = read-out: A-549 GI50, SRB assay, 48 hours exposure
# [4] = read-out: A-549 LC50, SRB assay, 48 hours exposure
structure (smiles),measurement,setting,value
CSc1nccc(-c2c3cccnc3n3c(NC(C)=O)nccc23)n1 [Compound 69],GI50,PANC-1,4990 nM
same,CC50,PANC-1,28500 nM
same,PANC-1 TGI,PANC-1,1.91E−05
same,GI50,SK-MEL-28,2190 nM
same,CC50,SK-MEL-28,16400 nM
same,MEL-28 TGI,SK-MEL-28,6.51E−06
same,GI50,"HT-29; read-out: GI50 HT-29, SRB assay, 48 hours exposure",14300 nM
same,GI50,HT-29; [1],887 nM
same,CC50,HT-29; [2],28500 nM
same,CC50,"HT-29; read-out: LC50 HT-29, SRB assay, 48 hours exposure",28600 nM
same,HT-29 TGI,"HT-29; SRB assay, 48 hours exposure",6.51E−06
same,TGI HT-29,"HT-29; SRB assay, 48 hours exposure",2.86E−05
same,GI50,K-562,12800 nM
same,CC50,K-562,28500 nM
same,K-562 TGI,K-562,2.85E−05
same,GI50,DU-145,985 nM
same,CC50,DU-145,23700 nM
same,DU-145 TGI,DU-145,4.59E−06
same,GI50,HeLa,7.16 nM
same,HELA TGI,HeLa,3.60E−08
same,GI50,LNCaP,1080 nM
same,CC50,LNCaP,28500 nM
same,LN-caP TGI,LNCaP,4.77E−06
same,GI50,LoVo-Dox,2040 nM
same,CC50,LoVo-Dox,28500 nM
same,LOVO-DOX TGI,LoVo-Dox,9.79E−06
same,GI50,HeLa-APL,5.94 nM
same,CC50,HeLa-APL,380 nM
same,HELA-APL TGI,HeLa-APL,2.45E−08
same,GI50,IGROV-ET,7310 nM
same,CC50,IGROV-ET,28500 nM
same,IGROV-ET TGI,IGROV-ET,2.18E−05
same,GI50,SK-BR-3,1230 nM
same,CC50,SK-BR-3,24800 nM
same,SK-BR-3 TGI,SK-BR-3,6.25E−06
same,GI50,IGROV-1,2130 nM
same,CC50,IGROV-1,28500 nM
same,IGROV TGI,IGROV-1,8.53E−06
same,GI50,A-549; [3],517 nM
same,CC50,A-549; [4],2750 nM
same,GI50,"A-549; read-out: GI50 A-549, SRB assay, 48 hours exposure",5710 nM
same,CC50,"A-549; read-out: LC50 A-549, SRB assay, 48 hours exposure",28600 nM
same,A-549 TGI,"A-549; SRB assay, 48 hours exposure",1.19E−06
same,TGI A-549,"A-549; SRB assay, 48 hours exposure",2.29E−05
same,GI50,LoVo,1220 nM
same,CC50,LoVo,28500 nM
same,LOVO TGI,LoVo,7.28E−06
CSc1nccc(-c2c3c(N)ccnc3n3c(N)nccc23)n1.Cl [Compound 93],GI50,PANC-1,220 nM
same,CC50,PANC-1,25200 nM
same,PANC-1 TGI,PANC-1,2.78E−06
same,GI50,SK-MEL-28,767 nM
same,CC50,SK-MEL-28,10700 nM
same,MEL-28 TGI,SK-MEL-28,3.71E−06
same,GI50,HT-29; [1],176 nM
same,CC50,HT-29; [2],25200 nM
same,HT-29 TGI,"HT-29; SRB assay, 48 hours exposure",1.32E−06
same,GI50,K-562,898 nM
same,CC50,K-562,25200 nM
same,K-562 TGI,K-562,1.57E−06
same,GI50,DU-145,64.6 nM
same,CC50,DU-145,2330 nM
same,DU-145 TGI,DU-145,4.16E−07
same,GI50,HeLa,2.52 nM
same,HELA TGI,HeLa,5.10E−09
same,GI50,LNCaP,127 nM
same,CC50,LNCaP,1670 nM
same,LN-caP TGI,LNCaP,3.68E−07
same,GI50,LoVo-Dox,699 nM
same,CC50,LoVo-Dox,25200 nM
same,LOVO-DOX TGI,LoVo-Dox,1.68E−06
same,GI50,HeLa-APL,4.67 nM
same,CC50,HeLa-APL,29 nM
same,HELA-APL TGI,HeLa-APL,6.03E−09
same,GI50,IGROV-ET,860 nM
same,CC50,IGROV-ET,2520 nM
same,IGROV-ET TGI,IGROV-ET,2.09E−06
same,GI50,SK-BR-3,326 nM
same,CC50,SK-BR-3,15600 nM
same,SK-BR-3 TGI,SK-BR-3,1.59E−06
same,GI50,IGROV-1,144 nM
same,CC50,IGROV-1,25200 nM
same,IGROV TGI,IGROV-1,8.76E−07
same,GI50,A-549; [3],249 nM
same,CC50,A-549; [4],5980 nM
same,A-549 TGI,"A-549; SRB assay, 48 hours exposure",9.34E−07
same,GI50,LoVo,984 nM
same,CC50,LoVo,17400 nM
same,LOVO TGI,LoVo,3.84E−06

# Reference: US7772241B2, “Variolin derivatives and their use as antitumor agents” (Pharma Mar S.A., priority 2001, dated 2010)
